The first experiment concerns NCI-H2405. Briefly: relative viability (nuclei count vs DMSO), 5 days (fraction); higher = more cells survive. The note with it: first compound 6.325 µM. The method in brief:
(§1)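 Relative viability equals treated-well nuclei counts divided by vehicle-well nuclei counts. Counts came from 4× images of lung cancer cell lines grown in 1536-well plates for 5 days after pin-tool dosing on the day after seeding. Dosing used one drug alone or a fixed anchor-drug dose plus five library-drug doses (not always all listed) in √10 steps, and values are medians of duplicate plates.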
Regarding `COCC1(CO)C(=O)C2CCN1CC2` (configuration not stated) [PRIMA-1MET] + O=C(c1cc(Cc2n[nH]c(=O)c3ccccc23)ccc1F)N1CCN(C(=O)C2CC2)CC1 [Olaparib] (partner 8 µM), the relative viability was determined as 0.88.

The same experiment, now with this note: first compound 20 µM.
As to `COCC1(CO)C(=O)C2CCN1CC2` (configuration not stated) [PRIMA-1MET] + N=C(N)NC(=N)NCCc1ccccc1 [Phenformin] (partner 250 µM), the relative viability is 0.0656.
As to `COCC1(CO)C(=O)C2CCN1CC2` (configuration not stated) [PRIMA-1MET] + CC(=O)c1c(C)c2cnc(Nc3ccc(N4CCNCC4)cn3)nc2n(C2CCCC2)c1=O [Palbociclib] (partner 0.5 µM), the relative viability amounted to 0.24.
`COCC1(CO)C(=O)C2CCN1CC2` (configuration not stated) [PRIMA-1MET] + Cc1nc(Nc2ncc(C(=O)Nc3c(C)cccc3Cl)s2)cc(N2CCN(CCO)CC2)n1 [Dasatinib] (partner 0.075 µM): the relative viability was determined as 0.0902.
The same measure, in the same setting: for `COCC1(CO)C(=O)C2CCN1CC2` (configuration not stated) [PRIMA-1MET] + O=C(c1cc(Cc2n[nH]c(=O)c3ccccc23)ccc1F)N1CCN(C(=O)C2CC2)CC1 [Olaparib] (partner 8 µM) the value was 0.167.

In a further experiment the test system is NCI-H322M. The experiment is described as above. The note with it: first compound 0.2 µM. The procedure, abridged:
as §1
`COCC1(CO)C(=O)C2CCN1CC2` (configuration not stated) [PRIMA-1MET] + N=C(N)NC(=N)NCCc1ccccc1 [Phenformin] (partner 250 µM) came in with a relative viability of 0.869.
Same read-out and setting: with `COCC1(CO)C(=O)C2CCN1CC2` (configuration not stated) [PRIMA-1MET] + CC(=O)c1c(C)c2cnc(Nc3ccc(N4CCNCC4)cn3)nc2n(C2CCCC2)c1=O [Palbociclib] (partner 0.5 µM) the figure was 0.535.
On the same count and under the same terms, for `COCC1(CO)C(=O)C2CCN1CC2` (configuration not stated) [PRIMA-1MET] + Cc1nc(Nc2ncc(C(=O)Nc3c(C)cccc3Cl)s2)cc(N2CCN(CCO)CC2)n1 [Dasatinib] (partner 0.075 µM) the value was 0.265; for `COCC1(CO)C(=O)C2CCN1CC2` (configuration not stated) [PRIMA-1MET] + O=C(c1cc(Cc2n[nH]c(=O)c3ccccc23)ccc1F)N1CCN(C(=O)C2CC2)CC1 [Olaparib] (partner 8 µM), 0.851.

Still in this experiment, the particulars now being: first compound 0.6325 µM.
In turn, `COCC1(CO)C(=O)C2CCN1CC2` (configuration not stated) [PRIMA-1MET] + N=C(N)NC(=N)NCCc1ccccc1 [Phenformin] (partner 250 µM) gave a relative viability of 0.549.
On the same count and under the same terms, with `COCC1(CO)C(=O)C2CCN1CC2` (configuration not stated) [PRIMA-1MET] + CC(=O)c1c(C)c2cnc(Nc3ccc(N4CCNCC4)cn3)nc2n(C2CCCC2)c1=O [Palbociclib] (partner 0.5 µM) the figure was 0.515.
Still for that read-out and setting: for `COCC1(CO)C(=O)C2CCN1CC2` (configuration not stated) [PRIMA-1MET] + Cc1nc(Nc2ncc(C(=O)Nc3c(C)cccc3Cl)s2)cc(N2CCN(CCO)CC2)n1 [Dasatinib] (partner 0.075 µM) the value was 0.258; for `COCC1(CO)C(=O)C2CCN1CC2` (configuration not stated) [PRIMA-1MET] + O=C(c1cc(Cc2n[nH]c(=O)c3ccccc23)ccc1F)N1CCN(C(=O)C2CC2)CC1 [Olaparib] (partner 8 µM), 0.668.

Still in this experiment, the particulars now being: first compound 6.325 µM.
In turn, `COCC1(CO)C(=O)C2CCN1CC2` (configuration not stated) [PRIMA-1MET] + N=C(N)NC(=N)NCCc1ccccc1 [Phenformin] (partner 250 µM) displayed a relative viability of 0.804.
On the same count and under the same terms, with `COCC1(CO)C(=O)C2CCN1CC2` (configuration not stated) [PRIMA-1MET] + CC(=O)c1c(C)c2cnc(Nc3ccc(N4CCNCC4)cn3)nc2n(C2CCCC2)c1=O [Palbociclib] (partner 0.5 µM) the figure was 0.525; with `COCC1(CO)C(=O)C2CCN1CC2` (configuration not stated) [PRIMA-1MET] + Cc1nc(Nc2ncc(C(=O)Nc3c(C)cccc3Cl)s2)cc(N2CCN(CCO)CC2)n1 [Dasatinib] (partner 0.075 µM), 0.243; with `COCC1(CO)C(=O)C2CCN1CC2` (configuration not stated) [PRIMA-1MET] + O=C(c1cc(Cc2n[nH]c(=O)c3ccccc23)ccc1F)N1CCN(C(=O)C2CC2)CC1 [Olaparib] (partner 8 µM), 0.772.

Staying with this experiment, now noted: first compound 20 µM.
On to `COCC1(CO)C(=O)C2CCN1CC2` (configuration not stated) [PRIMA-1MET] + N=C(N)NC(=N)NCCc1ccccc1 [Phenformin] (partner 250 µM), for which the relative viability came to 0.0578.
`COCC1(CO)C(=O)C2CCN1CC2` (configuration not stated) [PRIMA-1MET] + CC(=O)c1c(C)c2cnc(Nc3ccc(N4CCNCC4)cn3)nc2n(C2CCCC2)c1=O [Palbociclib] (partner 0.5 µM): the relative viability came out at 0.34.
Still for that read-out and setting: for `COCC1(CO)C(=O)C2CCN1CC2` (configuration not stated) [PRIMA-1MET] + Cc1nc(Nc2ncc(C(=O)Nc3c(C)cccc3Cl)s2)cc(N2CCN(CCO)CC2)n1 [Dasatinib] (partner 0.075 µM) the value was 0.0311; for `COCC1(CO)C(=O)C2CCN1CC2` (configuration not stated) [PRIMA-1MET] + O=C(c1cc(Cc2n[nH]c(=O)c3ccccc23)ccc1F)N1CCN(C(=O)C2CC2)CC1 [Olaparib] (partner 8 µM), 0.568.

The next experiment concerns NCI-H441. Described as above. The following applies: first compound 0.2 µM. The method in brief: as §1
In the case of `COCC1(CO)C(=O)C2CCN1CC2` (configuration not stated) [PRIMA-1MET] + N=C(N)NC(=N)NCCc1ccccc1 [Phenformin] (partner 250 µM), the relative viability was 0.872.
Still for that read-out and setting: with `COCC1(CO)C(=O)C2CCN1CC2` (configuration not stated) [PRIMA-1MET] + CC(=O)c1c(C)c2cnc(Nc3ccc(N4CCNCC4)cn3)nc2n(C2CCCC2)c1=O [Palbociclib] (partner 0.5 µM) the figure was 0.221; with `COCC1(CO)C(=O)C2CCN1CC2` (configuration not stated) [PRIMA-1MET] + Cc1nc(Nc2ncc(C(=O)Nc3c(C)cccc3Cl)s2)cc(N2CCN(CCO)CC2)n1 [Dasatinib] (partner 0.075 µM), 0.461; with `COCC1(CO)C(=O)C2CCN1CC2` (configuration not stated) [PRIMA-1MET] + O=C(c1cc(Cc2n[nH]c(=O)c3ccccc23)ccc1F)N1CCN(C(=O)C2CC2)CC1 [Olaparib] (partner 8 µM), 0.559.

Staying with this experiment, now noted: first compound 0.6325 µM.
Take `COCC1(CO)C(=O)C2CCN1CC2` (configuration not stated) [PRIMA-1MET] + N=C(N)NC(=N)NCCc1ccccc1 [Phenformin] (partner 250 µM): the relative viability worked out at 0.762.
Same read-out and setting: for `COCC1(CO)C(=O)C2CCN1CC2` (configuration not stated) [PRIMA-1MET] + CC(=O)c1c(C)c2cnc(Nc3ccc(N4CCNCC4)cn3)nc2n(C2CCCC2)c1=O [Palbociclib] (partner 0.5 µM) the value was 0.227.

For the origin of these results see the supplement of paper PMC10307832.
